Source: PubChem BioAssay (NCI)
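Results reflect a 48-hour exposure of cells in 96-well plates to compound at five concentrations. Definition used: TGI = concentration required for complete inhibition of growth.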

What was measured:
Assay in all cases: NCI tumour cell line growth inhibition, 48 h
DLD-1 colon = test system: DLD-1 colon
MCF7 breast = test system: MCF7 breast
HT29 colon = test system: HT29 colon
DMS 273 small cell lung = test system: DMS 273 small cell lung
HCC-2998 colon = test system: HCC-2998 colon
KM12 colon = test system: KM12 colon
KM20L2 colon = test system: KM20L2 colon
SF-539 CNS = test system: SF-539 CNS
OVCAR-5 ovarian = test system: OVCAR-5 ovarian
NCI-H226 lung = test system: NCI-H226 lung
P388/ADR leukemia = test system: P388/ADR leukemia
P388 leukemia = test system: P388 leukemia
NCI/ADR-RES ovarian = test system: NCI/ADR-RES ovarian
SN12C renal = test system: SN12C renal
A549 NSCLC = test system: A549 NSCLC
HOP-92 NSCLC = test system: HOP-92 NSCLC
NCI-H522 lung = test system: NCI-H522 lung
DMS 114 small cell lung = test system: DMS 114 small cell lung
SK-MEL-28 melanoma = test system: SK-MEL-28 melanoma
SK-MEL-5 melanoma = test system: SK-MEL-5 melanoma
RPMI-8226 leukemia = test system: RPMI-8226 leukemia
HL-60(TB) leukemia = test system: HL-60(TB) leukemia
M19-MEL melanoma = test system: M19-MEL melanoma
IGROV1 ovarian = test system: IGROV1 ovarian
UACC-257 melanoma = test system: UACC-257 melanoma
SN12K1 renal = test system: SN12K1 renal
MALME-3M melanoma = test system: MALME-3M melanoma
SNB-75 CNS = test system: SNB-75 CNS
SNB-19 CNS = test system: SNB-19 CNS
U251 CNS = test system: U251 CNS
UACC-62 melanoma = test system: UACC-62 melanoma
A498 renal = test system: A498 renal
CAKI-1 renal = test system: CAKI-1 renal
NCI-H23 lung = test system: NCI-H23 lung
MOLT-4 leukemia = test system: MOLT-4 leukemia
EKVX NSCLC = test system: EKVX NSCLC
K-562 leukemia = test system: K-562 leukemia
OVCAR-8 ovarian = test system: OVCAR-8 ovarian
SF-295 CNS = test system: SF-295 CNS
RXF 393 renal = test system: RXF 393 renal
CCRF-CEM leukemia = test system: CCRF-CEM leukemia
XF 498 CNS = test system: XF 498 CNS
HCT-116 colon = test system: HCT-116 colon
OVCAR-4 ovarian = test system: OVCAR-4 ovarian
SK-OV-3 ovarian = test system: SK-OV-3 ovarian
HCT-15 colon = test system: HCT-15 colon
COLO 205 colon = test system: COLO 205 colon
SW-620 colon = test system: SW-620 colon
OVCAR-3 ovarian = test system: OVCAR-3 ovarian
HOP-62 NSCLC = test system: HOP-62 NSCLC
NCI-H460 lung = test system: NCI-H460 lung
UO-31 renal = test system: UO-31 renal
LOX IMVI melanoma = test system: LOX IMVI melanoma
HOP-18 NSCLC = test system: HOP-18 NSCLC
SF-268 CNS = test system: SF-268 CNS
SK-MEL-2 melanoma = test system: SK-MEL-2 melanoma
TK-10 renal = test system: TK-10 renal
SNB-78 CNS = test system: SNB-78 CNS
M14 melanoma = test system: M14 melanoma
SR leukemia = test system: SR leukemia
LXFL 529 NSCLC = test system: LXFL 529 NSCLC
RXF-631 renal = test system: RXF-631 renal
786-0 renal = test system: 786-0 renal
ACHN renal = test system: ACHN renal

## Cc1ccc(N(O)C(C)(C)C)cc1
DLD-1 colon
  TGI: > 100 µM
MCF7 breast
  TGI: > 100 µM
HT29 colon
  TGI: > 100 µM
DMS 273 small cell lung
  TGI: > 100 µM
HCC-2998 colon
  TGI: > 100 µM
KM12 colon
  TGI: > 100 µM
KM20L2 colon
  TGI: > 100 µM
SF-539 CNS
  TGI: > 100 µM
OVCAR-5 ovarian
  TGI: > 100 µM
NCI-H226 lung
  TGI: > 100 µM
P388/ADR leukemia
  TGI: > 100 µM
P388 leukemia
  TGI: > 100 µM
NCI/ADR-RES ovarian
  TGI: > 100 µM
SN12C renal
  TGI: > 100 µM
A549 NSCLC
  TGI: > 100 µM
HOP-92 NSCLC
  TGI: > 100 µM
NCI-H522 lung
  TGI: > 100 µM
DMS 114 small cell lung
  TGI: > 100 µM
SK-MEL-28 melanoma
  TGI: > 100 µM
SK-MEL-5 melanoma
  TGI: > 100 µM
RPMI-8226 leukemia
  TGI: > 100 µM
HL-60(TB) leukemia
  TGI: > 100 µM
M19-MEL melanoma
  TGI: > 100 µM
IGROV1 ovarian
  TGI: > 100 µM
UACC-257 melanoma
  TGI: > 100 µM
SN12K1 renal
  TGI: > 100 µM
MALME-3M melanoma
  TGI: > 100 µM
SNB-75 CNS
  TGI: > 100 µM
SNB-19 CNS
  TGI: > 100 µM
U251 CNS
  TGI: > 100 µM
UACC-62 melanoma
  TGI: > 100 µM
A498 renal
  TGI: > 100 µM
CAKI-1 renal
  TGI: > 100 µM
NCI-H23 lung
  TGI: > 100 µM
MOLT-4 leukemia
  TGI: > 100 µM
EKVX NSCLC
  TGI: > 100 µM
K-562 leukemia
  TGI: > 100 µM
OVCAR-8 ovarian
  TGI: > 100 µM
SF-295 CNS
  TGI: > 100 µM
RXF 393 renal
  TGI: > 100 µM
CCRF-CEM leukemia
  TGI: > 100 µM
XF 498 CNS
  TGI: > 100 µM
HCT-116 colon
  TGI: > 100 µM
OVCAR-4 ovarian
  TGI: > 100 µM
SK-OV-3 ovarian
  TGI: > 100 µM
HCT-15 colon
  TGI: > 100 µM
COLO 205 colon
  TGI: > 100 µM
SW-620 colon
  TGI: > 100 µM
OVCAR-3 ovarian
  TGI: > 100 µM
HOP-62 NSCLC
  TGI: > 100 µM
NCI-H460 lung
  TGI: > 100 µM
UO-31 renal
  TGI: > 100 µM
LOX IMVI melanoma
  TGI: > 100 µM
HOP-18 NSCLC
  TGI: > 100 µM
SF-268 CNS
  TGI: > 100 µM
SK-MEL-2 melanoma
  TGI: > 100 µM

## CCOC(=O)CCC1(C(=O)OCC)CCCC1=O (centres undefined)
DLD-1 colon
  TGI: > 100 µM
HT29 colon
  TGI: > 100 µM
DMS 273 small cell lung
  TGI: > 100 µM
HCC-2998 colon
  TGI: > 100 µM
TK-10 renal
  TGI: > 100 µM
KM12 colon
  TGI: > 100 µM
KM20L2 colon
  TGI: > 100 µM
SF-539 CNS
  TGI: > 100 µM
OVCAR-5 ovarian
  TGI: > 100 µM
NCI-H226 lung
  TGI: > 100 µM
SNB-78 CNS
  TGI: > 100 µM
SN12C renal
  TGI: > 100 µM
A549 NSCLC
  TGI: > 100 µM
HOP-92 NSCLC
  TGI: > 100 µM
NCI-H522 lung
  TGI: > 100 µM
DMS 114 small cell lung
  TGI: > 100 µM
SK-MEL-28 melanoma
  TGI: > 100 µM
SK-MEL-5 melanoma
  TGI: > 100 µM
RPMI-8226 leukemia
  TGI: 77.4 µM
HL-60(TB) leukemia
  TGI: > 100 µM
M19-MEL melanoma
  TGI: > 100 µM
IGROV1 ovarian
  TGI: > 100 µM
UACC-257 melanoma
  TGI: > 100 µM
M14 melanoma
  TGI: > 100 µM
MALME-3M melanoma
  TGI: > 100 µM
SNB-75 CNS
  TGI: > 100 µM
SNB-19 CNS
  TGI: > 100 µM
U251 CNS
  TGI: > 100 µM
UACC-62 melanoma
  TGI: > 100 µM
SR leukemia
  TGI: 60.4 µM
A498 renal
  TGI: > 100 µM
CAKI-1 renal
  TGI: > 100 µM
NCI-H23 lung
  TGI: > 100 µM
MOLT-4 leukemia
  TGI: > 100 µM
LXFL 529 NSCLC
  TGI: > 100 µM
EKVX NSCLC
  TGI: > 100 µM
K-562 leukemia
  TGI: > 100 µM
RXF-631 renal
  TGI: > 100 µM
OVCAR-8 ovarian
  TGI: > 100 µM
786-0 renal
  TGI: > 100 µM
SF-295 CNS
  TGI: > 100 µM
RXF 393 renal
  TGI: > 100 µM
CCRF-CEM leukemia
  TGI: > 100 µM
XF 498 CNS
  TGI: > 100 µM
HCT-116 colon
  TGI: > 100 µM
OVCAR-4 ovarian
  TGI: > 100 µM
SK-OV-3 ovarian
  TGI: > 100 µM
HCT-15 colon
  TGI: > 100 µM
COLO 205 colon
  TGI: > 100 µM
ACHN renal
  TGI: > 100 µM
OVCAR-3 ovarian
  TGI: > 100 µM
HOP-62 NSCLC
  TGI: > 100 µM
NCI-H460 lung
  TGI: > 100 µM
UO-31 renal
  TGI: > 100 µM
LOX IMVI melanoma
  TGI: > 100 µM
HOP-18 NSCLC
  TGI: > 100 µM
SF-268 CNS
  TGI: > 100 µM
SK-MEL-2 melanoma
  TGI: > 100 µM
